Here are results for one compound from patent US9046516B2, “Immunoassay method, reagent kit for detecting alkaline phosphatase, and reagent kit for immunoassay” (SYSMEX CORPORATION, priority 2007, dated 2015).

In the assay the test system is endogenous ALP. The assay is described as follows: HBs antigen immunoassay with ALP label: luminescence intensity of samples, reduction of the influence of endogenous ALP. The format is biochemical. The note with it: particle dispersion with 2 mM levamisole. The method, then:
In this example, the effect of the inhibitor of endogenous ALP contained in the particle dispersion prepared in (4) above on reduction of the influence of endogenous ALP was examined.
Specifically, the reagents prepared in (1) to (5) above were used and the luminescence intensities of HBs antigen-negative samples were measured. The measurement method is described below.
First, 25 μL sample was mixed with 30 μL of the HBs antibody reagent and then incubated at 42° C. for about 3 minutes, whereby an HBs antigen in the sample was reacted with the biotinylated HBs antibody in the HBs antibody reagent. Subsequently, 30 μL of the magnetic particle reagent was added to the mixture and then incubated for about 2 minutes, and a complex consisting of the HBs antigen and the biotinylated HBs antibody was immobilized on the ST magnetic particles. […] 50 μL of the particle dispersion was added to the ST magnetic particles from which the wash fluid had been removed, then the ST magnetic particles were dispersed in the particle dispersion, 100 μL of the substrate solution was added thereto, and the luminescence intensity of the sample was measured with LUMI-COUNTER 700 (Microtec Nichion). […]

Regarding `c1ccc([C@H]2CN3CCSC3=N2)cc1` [Levamisole, (−)-2,3,5,6-tetrahydro-6-phenylimidazo[1,2-b]thiazole], the “With Levamisole (Luminescence Intensity, Counts)” value runs as follows: (negative control NC (0.1 M TEA buffer solution containing 5% BSA, pH 7.0)) 705 Counts; (positive control PC (HBs antigen-positive serum)) 258759 Counts.
